Paper PMC11721672, “Design, Structure–Activity Relationships, and Computational Modeling Studies of a Series of α-Helix Biased, Ultra-Short Glucagon-like Peptide-1 Receptor Agonists” (Molecules, 2024)
Read-outs that look alike come from different tables or passages of the source. Square brackets hold non-standard residues; d marks the D form. Peptide text beside a SMILES is read from it. Bip = N[C@@H](Cc1ccc(-c2ccccc2)cc1)C(=O)O; αMePhe(2-F) = C[C@](N)(Cc1ccccc1F)C(=O)O; Aib = CC(C)(N)C(=O)O

What was measured:
[1] = biological target: human GLP-1 receptor (hGLP-1R); parameters: method as in PMID 31031702; conditions: read-out: potency at the human GLP-1 receptor; cited from earlier work
hGLP1 receptor = biological target: T1, hGLP1 receptor (Homo sapiens, UniProt P43220); assay: GLP-1 receptor agonism assay (HTRF cAMP, HEK cells co-expressing hGLP1 receptor and CRE-Luciferase); assay type: cell-based; conditions: for Emax: HEK293, Table 6 potency profile; for EC50: read-out: cAMP EC50; for dpEC50 (contribution of Cα-methylation): dpEC50 = pEC50 (Aib) − pEC50 (Ala) − 0.97, Aib peptide versus the Ala peptide of the same line
T1 construct: expressed in transfected cells; host or cells: HEK (human embryonic kidney) cells co-expressing hGLP1 receptor and CRE-Luciferase

[2] = Table 1, Phe6 modifications, 0% HSA, average of two independent experiments in triplicate (RXL-3039 tested once)

T1 sequence (P43220 24-463): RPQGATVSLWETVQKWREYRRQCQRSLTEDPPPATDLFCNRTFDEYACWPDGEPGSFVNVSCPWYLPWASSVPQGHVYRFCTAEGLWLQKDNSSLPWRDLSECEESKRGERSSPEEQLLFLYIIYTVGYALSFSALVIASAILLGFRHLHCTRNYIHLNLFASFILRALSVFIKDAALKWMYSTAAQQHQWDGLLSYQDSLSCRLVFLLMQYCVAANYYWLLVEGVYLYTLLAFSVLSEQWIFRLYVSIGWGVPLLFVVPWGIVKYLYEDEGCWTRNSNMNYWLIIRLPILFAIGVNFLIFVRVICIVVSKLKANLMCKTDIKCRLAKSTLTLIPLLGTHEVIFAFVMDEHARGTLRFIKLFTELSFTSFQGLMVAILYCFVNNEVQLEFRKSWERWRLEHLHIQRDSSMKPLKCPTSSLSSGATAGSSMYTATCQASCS

Compound: semaglutide
- EC50 [1]: 0.0062 nM

Compound: C[C@@H](O)[C@H](NC(=O)CNC(=O)[C@H](CCC(=O)O)NC(=O)C(C)(C)NC(=O)[C@@H](N)Cc1c[nH]cn1)C(=O)N[C@@H](Cc1ccccc1C#N)C(=O)N[C@H](C(=O)N[C@@H](CO)C(=O)N[C@@H](CC(=O)O)C(=O)N[C@@H](Cc1ccc(-c2ccccc2)cc1)C(=O)N[C@@H](Cc1ccc(-c2ccccc2)cc1)C(N)=O)[C@@H](C)O [RXL-3015, His-Aib-Glu-Gly-Thr-Phe(2-CN)-Thr-Ser-Asp-Bip-Bip-NH2]
- Emax (hGLP1 receptor): 101%
- EC50 (hGLP1 receptor; [2]): 7.7 nM

Compound: C[C@@H](O)[C@H](NC(=O)CNC(=O)C(C)(C)NC(=O)C(C)(C)NC(=O)[C@@H](N)Cc1c[nH]cn1)C(=O)N[C@@](C)(Cc1ccccc1F)C(=O)N[C@H](C(=O)N[C@@H](CO)C(=O)N[C@@H](CC(=O)O)C(=O)N[C@@H](Cc1ccc(-c2ccccc2)cc1)C(=O)N[C@@H](Cc1ccc(-c2ccccc2)cc1)C(N)=O)[C@@H](C)O [RXL-3031, His-Aib-Aib-Gly-Thr-α-Me-Phe(2-F)-Thr-Ser-Asp-Bip-Bip-NH2] (H-H[Aib][Aib]GT[αMePhe(2-F)]TSD[Bip][Bip]-NH2)
- Emax (hGLP1 receptor): 121%
- pEC50 (hGLP1 receptor; Table 4, Aib-scan peptides, 0% HSA): 8.31
- dpEC50 (contribution of Cα-methylation) (hGLP1 receptor; 0% HSA): −1.13

Compound: C[C@@H](O)[C@H](NC(=O)CNC(=O)[C@H](CCC(=O)O)NC(=O)C(C)(C)NC(=O)C(C)(C)N)C(=O)N[C@@](C)(Cc1ccccc1F)C(=O)N[C@H](C(=O)N[C@@H](CO)C(=O)N[C@@H](CC(=O)O)C(=O)N[C@@H](Cc1ccc(-c2ccccc2)cc1)C(=O)N[C@@H](Cc1ccc(-c2ccccc2)cc1)C(N)=O)[C@@H](C)O [RXL-3030, Aib-Aib-Glu-Gly-Thr-α-Me-Phe(2-F)-Thr-Ser-Asp-Bip-Bip-NH2] (H-[Aib][Aib]EGT[αMePhe(2-F)]TSD[Bip][Bip]-NH2)
- decreased potency by Aib substitution (hGLP1 receptor; Aib-scanning, versus parent analog RXL-101): < 10 fold
- Emax (hGLP1 receptor): 112%
- dpEC50 (contribution of Cα-methylation) (hGLP1 receptor; 0% HSA): −0.26

Compound: C[C@@H](O)[C@H](NC(=O)CNC(=O)[C@H](CCC(=O)O)NC(=O)C(C)(C)NC(=O)[C@@H](N)Cc1c[nH]cn1)C(=O)N[C@@H](Cc1ccccc1Cl)C(=O)N[C@H](C(=O)N[C@@H](CO)C(=O)N[C@@H](CC(=O)O)C(=O)N[C@@H](Cc1ccc(-c2ccccc2)cc1)C(=O)N[C@@H](Cc1ccc(-c2ccccc2)cc1)C(N)=O)[C@@H](C)O [RXL-3011, His-Aib-Glu-Gly-Thr-Phe(2-Cl)-Thr-Ser-Asp-Bip-Bip-NH2]
- Emax (hGLP1 receptor): 91.3%
- EC50 (hGLP1 receptor; [2]): 0.9 nM

Compound: C[C@H](N)C(=O)NC(C)(C)C(=O)N[C@@H](CCC(=O)O)C(=O)NCC(=O)N[C@H](C(=O)N[C@@H](Cc1ccccc1F)C(=O)N[C@H](C(=O)N[C@@H](CO)C(=O)N[C@@H](CC(=O)O)C(=O)N[C@@H](Cc1ccc(-c2ccccc2)cc1)C(=O)N[C@@H](Cc1ccc(-c2ccccc2)cc1)C(N)=O)[C@@H](C)O)[C@@H](C)O [RXL-3001, Ala-Aib-Glu-Gly-Thr-Phe(2-F)-Thr-Ser-Asp-Bip-Bip-NH2]
- Emax (hGLP1 receptor): 108%
- EC50 (hGLP1 receptor; Table 2, Ala-scanning, 0% HSA, >1000 nM = out of range): 21.9 nM

Compound: C[C@@H](O)[C@H](NC(=O)CNC(=O)[C@H](CCC(=O)O)NC(=O)C(C)(C)NC(=O)[C@@H](N)Cc1c[nH]cn1)C(=O)N[C@@H](Cc1c(F)c(F)c(F)c(F)c1F)C(=O)N[C@H](C(=O)N[C@@H](CO)C(=O)N[C@@H](CC(=O)O)C(=O)N[C@@H](Cc1ccc(-c2ccccc2)cc1)C(=O)N[C@@H](Cc1ccc(-c2ccccc2)cc1)C(N)=O)[C@@H](C)O [RXL-3018, His-Aib-Glu-Gly-Thr-Phe(2,3,4,5,6-F)-Thr-Ser-Asp-Bip-Bip-NH2]
- Emax (hGLP1 receptor): 102%
- EC50 (hGLP1 receptor; [2]): 0.3 nM
- GLP-1R agonist potency relative to RXL-3000 (hGLP1 receptor; versus RXL-3000): threefold less potent
